Source: PMC12040169 (PLOS Biology, 2025)

test: in vitro; details: human, hela cells, % viability

| SMILES | viability at 28.5 h, 10 µM |
| --- | --- |
| CC12CCC(=O)N1C(C(=O)NCCNc1ccc(S(C)(=O)=O)cc1[N+](=O)[O-])CS2 (stereo not drawn) [CBK296661] | 87.6% |
| O=C(Nc1cccc(-c2nnco2)c1)C1CCCCC1 [CBK296662] | 86.2% |
| CCN(CC)C(=O)c1cccc(NS(=O)(=O)c2ccc(C)c(C(=O)O)c2)c1 [CBK296665] | 111% |
| COc1cc(Cl)c(C)cc1NC(=O)C1CC=CCC1C(=O)O (stereo not drawn) [CBK296667] | 94.1% |
| CC(C)(Oc1ccc(Cl)cc1)C(=O)Nc1ccc(CN2C(=O)CNC2=O)cc1 [CBK296668] | 103% |
| COc1ccccc1NS(=O)(=O)c1ccc(C)c(C(=O)NCC(c2ccco2)N2CCCCC2)c1 (stereo not drawn) [CBK296669] | 81.3% |
| COC(=O)CNC(=O)C1CC(=O)N(c2ccccc2Br)C1 (stereo not drawn) [CBK296672] | 97.1% |
| O=C(CCc1ccc(S(=O)(=O)NC2CC2)cc1)N1CCCC1c1ccncc1 (stereo not drawn) [CBK296673] | 106% |
| CCC(C)(C)C1CCC(NC(=O)CSCCC(=O)O)CC1 (stereo not drawn) [CBK296674] | 107% |
| Cc1ccc2nc(C)cc(C(=O)OCc3ccc(C(N)=O)cc3)c2c1 [CBK296676] | 97.8% |
| CN(Cc1ccccc1NCCn1c(=O)oc2ccccc21)C1CCCCC1 [CBK296678] | 78.1% |
| CC(C)Cn1c(SCC(=O)Nc2ccc(OC(F)F)cc2)nc(O)cc1=O [CBK296679] | 91.2% |
| COC(=O)c1ccc(NS(=O)(=O)c2ccc(C)c(C(=O)O)c2)c(C)c1 [CBK296684] | 105% |
| Cc1cc(C(=O)Nc2nc(Cc3n[nH]c(=S)n3C)cs2)sc1C [CBK296687] | 68.5% |
| Cc1ccc(C(=O)O)cc1S(=O)(=O)Nc1ccc(-c2cn3ccsc3n2)cc1 [CBK296688] | 85.2% |
| Cc1nc(NC(=O)Cc2c(C)nn(CC(C)C)c2C)sc1-c1n[nH]c(=S)n1C [CBK296691] | 88.6% |
| CN(Cc1ccccc1N1CCOCC1)C(=O)c1ccc2ncsc2c1 [CBK296692] | 108% |
| CCC(C)c1ccc(NC(C)C(=O)Nc2ccc3[nH]c(=O)[nH]c3c2)cc1 (stereo not drawn) [CBK296694] | 92.1% |
| CN(C)CC(=O)N1CCN(c2ccc(C(=O)c3ccccc3)cc2[N+](=O)[O-])CC1 [CBK296699] | 85.4% |
| CCn1c(=O)c(C=Cc2cc(OC)c(O)c(OC)c2)nc2cc(C(=O)O)ccc21 [CBK296701] | 85.1% |
| CC(C)(CC(=O)O)CC(=O)Nc1cc(S(=O)(=O)N2CCCC2)ccc1Cl [CBK296702] | 95.4% |

| SMILES | viability at 28.5 h, 10 µM |
| --- | --- |
| CCOc1ccc(C2=NN(C(=O)CCC(=O)O)C(c3ccc4nccnc4c3)C2)cc1 (stereo not drawn) [CBK296703] | 103% |
| CCOc1cc2c(cc1NS(=O)(=O)c1cc(C(=O)O)ccc1C)OC(C)C2 (stereo not drawn) [CBK296711] | 101% |
| O=C(Nc1cccc(-c2nnn[nH]2)c1)c1ccc(C2CCCCC2)cc1 [CBK296712] | 114% |
| O=C(CSCCOc1ccc(Br)cc1)Nc1ccc2c(c1)OCCO2 [CBK296714] | 108% |
| O=C(Nc1cccc2ncccc12)c1cccc(Oc2ccccc2)c1 [CBK296716] | 91.7% |
| NC(=O)C1CCN(C(=O)c2cc(O)nc3ccccc23)CC1 [CBK296719] | 98.2% |
| COc1cc(C=CC(=O)O)ccc1OCc1cn2cc(Cl)ccc2n1 [CBK296722] | 99.1% |
| Cc1ccc(CCC2CCN(C(=O)c3ccc(O)nc3)CC2)cc1 [CBK296724] | 94.4% |
| CCc1ccc(-c2csc(NS(=O)(=O)c3cccc(C(=O)O)c3)n2)cc1 [CBK296726] | 91% |
| Cc1ccc(CSCCNS(=O)(=O)c2ccsc2C(=O)O)cc1 [CBK296727] | 92.6% |
| COc1ccccc1Oc1ccc(NS(=O)(=O)c2cccc(C(=O)O)c2)cc1 [CBK296728] | 108% |
| Cc1nc(NC(=O)c2ccoc2)sc1C [CBK296729] | 103% |
| O=C(NCc1ccccc1F)c1cccc(CN2C(=O)CSC2=O)c1 [CBK296730] | 100% |
| CCOc1ccc(-c2nc(CSc3n[nH]c(=O)n3Cc3ccccc3)cs2)cc1 [CBK296737] | 102% |
| CC(c1ccc(S(C)(=O)=O)cc1)N(C)C(=O)COc1ccc2ccccc2c1 (stereo not drawn) [CBK296738] | 103% |
| Cc1ccc(-c2n[nH]c(=S)n2CCC(=O)N2CCC(c3c[nH]c4ccccc34)CC2)cc1 [CBK296739] | 86.8% |
| O=C(CCN1C(=O)COc2ccccc21)Nc1ccnn1Cc1ccccc1Br [CBK296740] | 99.8% |
| COc1ccc(-c2nc(COC(=O)c3cccnc3N)cs2)cc1OC [CBK296741] | 82.6% |
| Nc1nc(Cn2nc(-c3ccc(F)cc3)oc2=O)nc(Nc2ccc(F)cc2)n1 [CBK296742] | 91.6% |
| Cc1ccc(C)c(NC(=O)C(C)Sc2nc3ccccc3nc2C)c1 (stereo not drawn) [CBK296744] | 106% |
| CCCNC(=O)C(C)Sc1nc2ccsc2c(=O)n1CC (stereo not drawn) [CBK296745] | 105% |

| SMILES | viability at 28.5 h, 10 µM |
| --- | --- |
| COc1ccccc1NC(=O)C1CCN(C(=O)OC(C)(C)C)CC1 [CBK296746] | 90.5% |
| CC1CC1C(=O)NCC(=O)N1CCN(S(=O)(=O)c2ccccc2[N+](=O)[O-])CC1 (stereo not drawn) [CBK296747] | 90.4% |
| CC(Nc1ccc2[nH]c(=O)[nH]c2c1)C(=O)N1CCN(c2ccccc2)CC1 (stereo not drawn) [CBK296748] | 99.4% |
| N#Cc1ccccc1CSCCNC(=O)c1ccc(NC(=O)c2ccco2)s1 [CBK296749] | 80.8% |
| C=CCn1c(Cc2csc(NC(=O)c3ccc(OC)cc3O)n2)n[nH]c1=S [CBK296752] | 104% |
| COc1ccc(S(=O)(=O)N2CCN(C(C(=O)O)c3ccc(C)cc3)CC2)cc1 (stereo not drawn) [CBK296753] | 104% |
| COc1cc(N)c(Cl)cc1C(=O)OCc1cc2ccc(C)cc2nc1Cl [CBK296755] | 89.7% |
| NC(=O)C1CCN(C(=O)C2=NN(c3ccccc3)C(c3ccccc3)C2)CC1 (stereo not drawn) [CBK296760] | 99.1% |
| COc1cc(NC(=O)CC2(C(=O)O)CCCCC2)ccc1N1CCCC1=O [CBK296761] | 109% |
| CCc1nnc(COC(=O)c2ccccc2NC(=O)Cc2ccccc2)o1 [CBK296762] | 81.5% |
| Cc1ccc(-n2c(C)cc(C(=O)CSc3n[nH]c(=O)n3C3CC3)c2C)cc1C [CBK296764] | 92.3% |
| Cn1c(Cc2csc(NC(=O)CNC(=O)Cc3ccccc3)n2)n[nH]c1=S [CBK296765] | 102% |
| Cc1ccc(CC(=O)Nc2nc(Cc3n[nH]c(=S)n3C)cs2)cc1 [CBK296766] | 90.5% |
| O=C(O)c1cc(S(=O)(=O)NCc2ccc(Cl)cc2Cl)ccc1O [CBK296924] | 94.7% |
| CCn1c(-c2ccc(C)cc2)cnc1SCC(=O)N1CCN(C(C)=O)CC1 [CBK296925] | 110% |
| CCCCN(C(=O)c1cc(C)nc2ccccc12)c1ccccc1 [CBK296926] | 89.9% |
| Cc1ccc(C2=NN(C(=O)CCC(=O)O)C(c3cc4cccc(C)c4[nH]c3=O)C2)cc1 (stereo not drawn) [CBK296927] | 91% |
| CC(=O)Nc1ccc(NC(=O)CC2(CC(=O)O)CCCC2)cc1 [CBK296931] | 97.3% |
| Cc1ccc(Cn2ccsc2=NC(=O)c2cc(S(=O)(=O)N3CCOCC3)ccc2C)cc1 [CBK296935] | 101% |
| O=C(Cn1nc(C(=O)O)c2ccccc2c1=O)c1ccc(S(=O)(=O)N2CCOCC2)cc1 [CBK296939] | 90.2% |
| CCN(CC)C(=O)c1cccc(NS(=O)(=O)c2cccc(C(=O)O)c2)c1 [CBK296943] | 97.6% |

| SMILES | viability at 28.5 h, 10 µM |
| --- | --- |
| CC1CCCC(C)N1S(=O)(=O)c1ccc(NS(=O)(=O)c2cccc(C(=O)O)c2)cc1 (stereo not drawn) [CBK296944] | 94.6% |
| COc1cc(C=c2sc(=CC(=O)C(C)(C)C)[nH]c2=O)ccc1OCC(=O)O [CBK296948] | 104% |
| O=C(Cc1ccc(Cl)cc1Cl)Nc1ccc(-c2nnc3n2CCCCC3)cc1 [CBK296949] | 94.8% |
| CC(C)NS(=O)(=O)c1ccc(NS(=O)(=O)c2cccc(C(=O)O)c2)cc1 [CBK296950] | 84.3% |
| Cc1ccc(NS(=O)(=O)c2cc(C(=O)O)ccc2Cl)cc1S(=O)(=O)N1CCOCC1 [CBK296954] | 113% |
| Cc1nc(SCCN2C(=O)c3ccccc3S2(=O)=O)c2ccccc2n1 [CBK296958] | 90% |
| Cc1ccc2nc(COC(=O)c3cc(-c4ccccc4)nn3-c3ccccc3)cc(=O)n2c1 [CBK296959] | 89.8% |
| CCCn1c(SCC(=O)c2ccc(CCNC(C)=O)cc2)n[nH]c1=O [CBK296965] | 92.1% |
| CCCn1c(SCc2nc(N)nc(Nc3ccccc3CC)n2)n[nH]c1=O [CBK296966] | 86.6% |
| CCCn1c(SCC(=O)Nc2scc(-c3cccs3)c2C(=O)OCC)n[nH]c1=O [CBK296967] | 94.5% |
| COc1cc(C)c(CN2CCN(C(=O)COc3cc4ccccc4cc3C(=O)O)CC2)cc1OC [CBK296968] | 99.6% |
| CCCn1c(SCc2csc(CC(=O)Nc3ccccc3C)n2)n[nH]c1=O [CBK296969] | 91.1% |
| CCCCc1ccc(N2C(=O)CC(Nc3ccc(C(=O)O)cc3)C2=O)cc1 (stereo not drawn) [CBK296972] | 108% |
| COc1cc(-c2nnc(CSc3nc4sc(C(=O)O)c(C)c4c(=O)[nH]3)o2)cc(OC)c1OC [CBK296973] | 91% |
| O=C(O)CCC(=O)Nc1cccc(C(=O)Nc2cccc(Cl)c2)c1 [CBK296977] | 89.8% |
| Cc1ccc(Sc2ncccc2C(=O)Nc2ccnn2Cc2cccnc2)cc1C [CBK296980] | 109% |
| COc1ccc(OC)c(-n2c(SCC(=O)N3CCC(C(=O)O)CC3)nc3ccccc3c2=O)c1 [CBK296981] | 87.5% |
| CSCCC(C(=O)O)N1C(=O)C(=Cc2ccc(-c3cccc(Cl)c3)o2)SC1=S (stereo not drawn) [CBK296982] | 99.3% |
| CCCC(C(=O)O)N1C(=O)C(=Cc2ccc(-c3ccc(C(=O)OCC)cc3)o2)SC1=S (stereo not drawn) [CBK296983] | 80.6% |
| CCC(C(=O)O)N1C(=O)C(=Cc2ccc(-c3ccccc3C(F)(F)F)o2)SC1=S (stereo not drawn) [CBK296985] | 99.4% |
| COc1cc(C=CC(=O)O)ccc1OCC(=O)N1CCN(CC(=O)NC(C)(C)C)CC1 [CBK296987] | 114% |
